Measured values taken from patent US12415845B2 (priority 2018, dated 2025).

Experiments:
[1] = tested on: IFN-γ locus in CD8+ Pmel-1 cells; assay: ChIP-PCR of H3K9Ac deposition at the IFN-γ locus; type: cell-based, mouse; conditions: vs negative control; FIG. 2C
Experimental: Chromatin Immunoprecipitations were performed with validated antibodies from previous literatures (Gray et al., Immunity, 46(4): 596-608 (2017); Peng et al., Science, 354(6311): 481-484 (2016)) and protocols were followed according to manufacturing instructions provided by the CHIP-IT express shearing kit (Active Motif, Carlsbad, CA). Briefly, CD8+ Pmel-1 cells were fixed with formaldehyde for 7 minutes on a rocking platform and quenched with 1× of Glycine. Cells were pelleted with phenylmethylsulfonyl fluoride (PMSF) and protein inhibition cocktail and stored at −80 prior to cell lysis. Thawed cells were suspended in ice cold lysis buffer to obtain nuclei material. Nuclei material was sheared by incubating with enzymatic cocktail for 15 minutes at 37° C. Sheared chromatin with a total of 7.5 μg/sample was incubated with protein G magnetic beads with anti-H3K27Ac (Abcam Cat #ab4729), H3k9Ac (Abcam Cat #ab4441) (Abcam, Cambridge, UK) and anti IgG at 4° C. overnight. Magnetic beads were washed with buffers to remove unbound immune complexes and eluted with 150 μl of elution buffer. […] Concentration of the ChIP DNA was measured with high sensitive DNA assay protocol on tape station to normalize the DNA. Samples were sequenced on illumina Next seq system (Illumina, San Diego, CA) with 75 bp reads in single end mode with approximately 40M reads per sample. […]

[2] = tested on: transferred Ly5.1+ CD8+ T cells in mice bearing B16-mhgp100 tumors; assay: Persistence of transferred T cells in spleen of tumor-bearing mice; type: in vivo
T cells [3] = assay: Autophagy flux, GFP-mCherry-LC3b reporter, flow cytometry; type: cell-based, mouse
Human CD8+ TILs = assay: CD62L expression of human CD8+ TILs during rapid expansion, FACS; type: cell-based; conditions: 5 mM
Experimental: Human CD8^+ TILs from various histologies were cultured in the presence or absence (control) of potassium hydroxycitrate (5 mM). In brief, TILs from fresh tumor digests were subjected with 30 ng ml^−1 OKT3 to a rapid expansion protocol (REP) using irradiated peripheral blood mononuclear cells (PBMC) grown cultured in 3,000 IU ml-1 IL-2 in RPMI 1640 and AIM-V, supplemented with 5% in-house human serum 100 μg ml^−1 streptomycin and 100 μg ml^−1 penicillin, 2 mM 1-glutamine, 10 μg ml^−1 gentamicin, for approximately 14 days.
Expression of CD62L was measured by FACS. […] Specifically, FIG. 20 presents representative FACS data for human TIL showing relatively higher expression of the lymphoid homing marker CD62L during TIL expansion for potassium hydroxycitrate cultured TILs as compared to control TILs ([…], 14% increase). FIG. 21 is a graph showing the percentages of cells (% of maximum) expressing CD62L following treatment with negative control or potassium hydroxycitrate. FIGS. 22A and 22B show the quantification of the data shown in FIG. 21 for CD45RO^+ CD62L^+ for two patient samples (Patient A and Patient B).

B16-mhgp100 tumors [4] = assay: Anti-tumor efficacy in B16 melanoma model, citrate vs potassium hydroxycitrate; type: in vivo, mice; conditions: T cells cultured in potassium hydroxycitrate or citrate; FIGS. 17A-17C
[5] = tested on: adoptively transferred CD8+Ly5.1+ T cells; type: in vivo, mice; conditions: challenge with vaccinia rhgp100 1×10^7 PFU; negative control 7.8
B16-mhgp100 tumors [6] = assay: Anti-tumor efficacy after adoptive transfer of treated Pmel-1 T cells; type: in vivo, mice; conditions: FIGS. 5, 6, 11
T cells [7] = assay: Autophagy by immunoblot, LC3II/LC3I ratio; type: cell-based, mouse; conditions: acetate 5 mM where present, control 0.7
Experimental: Ablation of autophagy was measured by immunoblot following treatment with a combination of potassium hydroxycitrate and 5 mM acetate, potassium hydroxycitrate only, or control (neither potassium hydroxycitrate nor acetate). Beta-actin was used as a control. Quantification of the autophagy flux was represented by ratio of LC3II/LC3I intensities.

T cells [8] = assay: Acetate rescue: CD62L and IFN-γ by FACS; type: cell-based, mouse; conditions: control 49.4
Excerpt: (§1) For all flow cytometry experiments, T cells were stained with a fixable live/dead stain (Invitrogen, Waltham, MA) in phosphate buffered saline (PBS) followed by surface antibody staining in FACS buffer (PBS with 0.5% bovine serum albumin (BSA) and 0.1% sodium azide). For intracellular cytokine staining, cells were first stained for surface markers and later stained for intracellular molecules following fixation and permeabilization (BD CYTOFIX/CYTOPERM fixation/permeabilization solution kit). For phospho-staining, BD PHOSFLOW reagents (BD Biosciences) were used and protocols were carried out according to the manufacturer's protocols. After washing, cells were stained with phospho-antibodies purchased from Cell Signaling (Danvers, MA). […] All experiments were conducted on a BD FORTESSA flow cytometer (Becton Dickinson, Downers Grove, IL) and analyzed with FLOWJO software (TreeStar, Ashland, OR).
T cells were treated with a combination of potassium hydroxycitrate and acetate, potassium hydroxycitrate alone, or negative control. Expression of CD62L was measured by fluorescence-activated cell sorting (FACS).
IFN-γ secretion was also measured by FACS (Table D) and quantified (FIG. 13) following treatment with control, potassium hydroxycitrate alone, or a combination of potassium hydroxycitrate and acetate.

T cells [9] = assay: Cytoplasmic citrate and AcCoA quantification in treated T cells; type: cell-based, mouse
Experimental: T cells (n=3) cultured in control or potassium hydroxycitrate conditions were collected and washed in PBS to perform the total and cytoplasmic AcCoA and citrate levels. Samples were homogenized in 1% TRITON X-100 nonionic surfactant, 20 mM Tris-HCl, pH=7.4, 150 mM NaCl on ice for 10 min (Sigma Acetyl-Coenzyme A Assay Kit—MAK039) or citrate buffer (Sigma Citrate Assay Kit—MAK057) (Sigma, St. Louis, MO) as per the directions provided in the kit. For total AcCoA quantification, pelleted cells were extracted using 80% methanol or 5% sulfo-salicylic acid with 50 μM DTT. After cell lysis, samples were deproteinized with a 10 kDa molecular weight cut-off (MWCO) spin filter prior to the assay. AcCoA concentrations were interpolated with AcCoA standards using fluorometric assay (Ex=535, Em=587) or by mass spectrometry. Citrate concentrations were interpolated with citrate standards using colorimetric assay (570 nm). […]
Cytoplasmic citrate and cytoplasmic AcCoA were quantified following treatment of cells with potassium hydroxycitrate or negative control. […]
Cytoplasmic AcCoA was quantified following treatment with a combination of potassium hydroxycitrate and 5 mM acetate, potassium hydroxycitrate only, or control (neither potassium hydroxycitrate nor acetate) (FIG. 14).

CD8+ Pmel-1 T cells [10] = assay: Annexin V/PI FACS of live, apoptotic and necrotic populations; type: cell-based, mouse
Experimental: (§2) CD8+ Pmel-1 T cells were activated with mhgp100 peptide for 5 days in the presence of 5 mM potassium hydroxycitrate followed by secondary stimulation with anti-CD3 (1 μg/ml) and anti-CD28 (1 μg/ml) (FIG. 7A). Cells were analyzed for surface markers or intracellular cytokines on day 10.
Representative FACS data defining the percentages of live (Annexin V−PI−), apoptotic (Annexin V+PI−) and necrotic populations (Annexin V+PI+) cultured in control or potassium hydroxycitrate are provided in Table C and FIG. 8.

human TIL = assay: TNF and IL-2 expression of human TIL by FACS; type: cell-based; conditions: 2.5 or 5 mM, vs vehicle
Experimental: Human TIL were cultured without stimulation, in vehicle, or in potassium hydroxycitrate (2.5 or 5 mM). The cells were analyzed for the expression of tumor necrosis factor (TNF) and IL-2.

CD8+ Pmel-1 T cells [11] = assay: Flow cytometry of CD62L/CD44 and IFN-γ production; type: cell-based, mouse; conditions: 5 mM
Experimental: CD8^+ T cells from Pmel-1 mice were stimulated in vitro with 1 μM hgp10025-33 peptide for 5 days and secondary restimulation was done with plate-bound anti-CD3 (1 μg/ml; BD Biosciences, Franklin Lakes, NJ) and soluble anti-CD28 (1 μg/ml; BD Biosciences) and expanded in culture medium containing 60 IU of IL-2. The conditions control/potassium hydroxycitrate (FIG. 7) were activated in the above conditions for a total of 10 days. For measuring T cell effector function, these cells were stimulated on day 10 in the indicated conditions for 5 h with anti-CD3 and -CD28 without IL-2 in the presence of brefeldin A and monesin (BD Biosciences).
as §1, §2
Representative flow cytometry analysis and quantification of CD62L vs CD44 positive cells and IFN-γ+ production in T cells cultured in control or 2-hydroxy citrate (potassium hydroxycitrate (5 mM)) are shown in Table B and FIGS. 7A and 7B. […]

## O=C([O-])CC(O)(C(=O)[O-])C(O)C(=O)[O-].[K+].[K+].[K+] (stereo not shown) [Potassium hydroxycitrate, potassium hydroxycitrate]
[1]
  H3K9Ac deposition at the IFN-γ locus (ChIP-PCR quantification): reduced H3K9Ac deposition
[2]; T cells cultured in potassium hydroxycitrate vs control
  in vivo persistence following adoptive transfer: enhanced in vivo persistence
[2]; day 7 after transfer, tumor-bearing mice, negative control 9.2
  percentage Ly5.1+ CD8+ T cells in spleen: 46.3%
T cells [3]; flow cytometry, loss of GFP = autophagic flux, negative control 12.1
  percentage of mCherry positive cells which are GFP−: 33.2%
T cells [3]; flow cytometry, negative control 83.0
  percentage of mCherry positive cells which are GFP+: 60.8%
T cells [3]; vs negative control
  autophagy: Enhanced autophagy
Human CD8+ TILs; about 14 days REP, control 56.2, FIG. 20
  CD62L expression, representative FACS data: 66.6
Human CD8+ TILs; vs control
  expression of the lymphoid homing marker CD62L during TIL expansion: maintained relatively higher expression
Human CD8+ TILs; FIG. 20
  increase of CD62L expression vs control TILs: 14%
B16-mhgp100 tumors [4]
  antitumor efficacy in a B16 melanoma model: improves antitumor efficacy
[5]
  % Ly5.1+ CD8+ T cells, recall response: 25.9%
B16-mhgp100 tumors [6]
  antitumor efficacy: improved antitumor efficacy
T cells [7]
  autophagy flux, ratio of LC3II/LC3I intensities: 2.1
T cells [8]
  percentage of IFN-γ positive cells: 18.2%
T cells [9]; T cells treated with potassium hydroxycitrate (ACLY inhibitor) vs negative control, FIG. 2A
  cytoplasmic citrate: citrate accumulation
T cells [9]; T cells treated with potassium hydroxycitrate vs negative control, FIG. 2B
  cytoplasmic AcCoA: depletion of cytoplasmic AcCoA
CD8+ Pmel-1 T cells [10]; negative control 9.74
  percentage of cells PI+ Annexin+ (necrotic): 2.4%
CD8+ Pmel-1 T cells [10]; negative control 18.1
  percentage of cells PI− Annexin+ (apoptotic): 1.6%
CD8+ Pmel-1 T cells [10]; negative control 71.0
  percentage of cells PI− Annexin− (live): 95.2%
CD8+ Pmel-1 T cells [10]; vs control
  cellular apoptosis: reduced cellular apoptosis
Human TIL
  poly-functionality (TNF and IL-2 expression): improves poly-functionality of human TIL
CD8+ Pmel-1 T cells [11]; day 10, negative control 3.5
  percentage of cells CD44+ CD62L+: 30.7%
CD8+ Pmel-1 T cells [11]; day 10, negative control 59.3
  percentage of cells IFN-γ+: 14.2%
CD8+ Pmel-1 T cells [11]; vs control
  effector differentiation: blockade of effector differentiation

## O=C(O)CC(O)(CC(=O)O)C(=O)O [Citrate, reference compound]
B16-mhgp100 tumors [4]
  antitumor efficacy in a B16 melanoma model: but not citrate improves antitumor efficacy
